Assay results: US20120270251A1, “INHIBITION OF THE ACTIVITY OF KINASE AND SYNTHETASE ENZYMES” (CSIR, priority 2009, published 2012)
Read-outs that look alike come from different tables or passages of the source.

Assays:
Assay type in all cases: biochemical
[1] = biological target: Escherichia coli adenylylated glutamine synthetase (GS12) (Escherichia coli, UniProt P0A9C5); settings: for Hill factor (h): allosteric sigmoidal model
[2] = biological target: T1, Escherichia coli acetate kinase (Escherichia coli, UniProt P0A6A3); test: Acetate kinase steady-state kinetics, ATP vs C8D-ATP
T1 construct: purchased Sigma A7437
Text: Hexokinase from Saccharomyces cerevisiae Type F-300 (Sigma, H4502) and Acetate kinase from E. coli (Sigma, A7437) were purchased. The human adenylate kinase (AK1) gene in vector pLIG-SC1 was obtained from the Structural Genomics Consortium (code AK1A). The His-tagged AK1 was produced in Escherichia coli Origami (DE3) and purified using the Bio-Rad Profinia Purification System. […] The Mycobacterium tuberculosis shikimate kinase gene in pET15b (Novagen) was obtained from the group of Chris Abell, Cambridge University, UK. The his-tagged MtSK was produced in E. coli BL21 (DE3) and purified using the Bio-Rad Profinia Purification System. The pure protein was dialysed against 50 mM Tris (pH 7.5) and 1,000 mM NaCl. Adenylylated (GS12) and deadenylylated (GS0) glutamine synthetase were prepared as outlined below.
The assay was incubated at 30° C. for 30 minutes and stopped by the addition of 1 μl of 50% TCA. The formation of ADP was analysed by HPLC.
The results are reflected in FIGS. 19 to 25. […] The best-fit to the data was obtained for the specified kinetic model using the non-linear regression algorithms as outlined using the GraphPad Prism® 5 software. […] These response curves were then used to define the KIE by the conventional estimation of KIE from KIE=vH/vD. The KIED was also determined using the following function: […]

[3] = tested on: Saccharomyces cerevisiae hexokinase; test: Hexokinase steady-state kinetics, ATP vs C8D-ATP
[4] = biological target: B. stearothermophilus phosphofructokinase (Geobacillus stearothermophilus, UniProt P00512); settings: for Hill factor (h): allosteric sigmoidal model
AK1 [5] = biological target: T2, AK1 (Homo sapiens, UniProt P00568); test: AK1 enzyme activity with ATP versus deuterated ATP
T2 sequence (P00568 1-194): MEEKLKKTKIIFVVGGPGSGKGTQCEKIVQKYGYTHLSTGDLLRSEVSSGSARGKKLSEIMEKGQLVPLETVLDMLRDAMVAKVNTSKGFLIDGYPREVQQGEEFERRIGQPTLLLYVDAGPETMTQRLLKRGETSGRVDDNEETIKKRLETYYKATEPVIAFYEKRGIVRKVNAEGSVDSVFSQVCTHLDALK
Protocol: The assay is carried out in the presence of ATP and AMP measuring the formation of ADP. […] A kinetic isotope effect is also obtained when comparing the activity of the enzyme when the reaction is carried out in the presence of AMP and deuterated AMP. A further KIE is obtained when both deuterated ATP and deuterated AMP are used in the reaction. […] The KIE is obtained by dividing the activity of the enzyme in the presence of the proteated species (vH) by the enzyme activity in the presence of the deuterated species (vD) and is vH/vD=0.5. […] The proposed basic reaction mechanisms by which all forms of kinase are regulated occurs via either the formation of an immonium species at N7, which in turn induces the formation of a carbene at C8 or via the delocalization of electrons away from the C8 rendering the C8 more acidic. An immonium species may be induced at N7 by (1) protonation via a coordinated HCO3^−, (2) carboxylation of the N7, or (3) the coordination of an amino acid side chain within the active site such as a arginine, glutamine, lysine or histidine. The different forms of regulation are then based on the mechanism by which the carbene formed at C8 is stabilized and the mechanism by which the C8-H is deprotonated or via the interaction of the protein coordinated amino acid side chains affecting the delocalization of electrons around the adenyl ring of the nucleotide.

[6] = biological target: Escherichia coli deadenylylated glutamine synthetase (GS0) (Escherichia coli, UniProt P0A9C5); settings: for Hill factor (h): allosteric sigmoidal model
AK1 [7] = biological target: T2, AK1; test: Effect of ATPS and C8-D ATPS on synthesis of ADP by AK1; settings: 0.2-1.0 mM, 0.6 mM ATP, 0.6 mM AMP, pH 7.2
Protocol: Increasing concentrations of ATPS or C8-D ATPS were added; 0.2, 0.4, 0.6, 0.8, and 1.0 mM. Assays, in a final volume of 1 ml, were allowed to proceed for 45 mins at 37° C., before 6 μl 100% TCA was added to stop the reaction. […] The assay where no ATPS or C8-D ATPS was added produced 0.19 mM ADP.

[8] = tested model: Allosteric sigmoidal

B. stearothermophilus phosphofructokinase, sequence (P00512 whole entry): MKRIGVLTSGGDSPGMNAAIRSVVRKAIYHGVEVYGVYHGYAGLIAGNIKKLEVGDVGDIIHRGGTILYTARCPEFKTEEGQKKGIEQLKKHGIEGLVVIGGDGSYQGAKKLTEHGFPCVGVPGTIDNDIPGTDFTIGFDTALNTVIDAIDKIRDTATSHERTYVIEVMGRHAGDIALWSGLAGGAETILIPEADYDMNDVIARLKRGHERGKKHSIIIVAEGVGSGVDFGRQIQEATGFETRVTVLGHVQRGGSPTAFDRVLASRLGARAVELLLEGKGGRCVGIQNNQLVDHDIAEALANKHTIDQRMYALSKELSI
T1 sequence (P0A6A3 whole entry): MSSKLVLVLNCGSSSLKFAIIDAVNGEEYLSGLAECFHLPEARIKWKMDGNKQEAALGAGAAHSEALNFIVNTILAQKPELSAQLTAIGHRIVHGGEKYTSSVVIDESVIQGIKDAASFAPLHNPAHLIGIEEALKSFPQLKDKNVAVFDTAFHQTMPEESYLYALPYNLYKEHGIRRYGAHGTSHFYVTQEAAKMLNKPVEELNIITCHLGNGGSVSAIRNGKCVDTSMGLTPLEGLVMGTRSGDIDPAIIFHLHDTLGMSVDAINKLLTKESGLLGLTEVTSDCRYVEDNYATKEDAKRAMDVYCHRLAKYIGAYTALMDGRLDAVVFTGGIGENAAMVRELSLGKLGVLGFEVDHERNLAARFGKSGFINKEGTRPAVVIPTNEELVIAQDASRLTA
Escherichia coli adenylylated glutamine synthetase (GS12), sequence (P0A9C5 2-469): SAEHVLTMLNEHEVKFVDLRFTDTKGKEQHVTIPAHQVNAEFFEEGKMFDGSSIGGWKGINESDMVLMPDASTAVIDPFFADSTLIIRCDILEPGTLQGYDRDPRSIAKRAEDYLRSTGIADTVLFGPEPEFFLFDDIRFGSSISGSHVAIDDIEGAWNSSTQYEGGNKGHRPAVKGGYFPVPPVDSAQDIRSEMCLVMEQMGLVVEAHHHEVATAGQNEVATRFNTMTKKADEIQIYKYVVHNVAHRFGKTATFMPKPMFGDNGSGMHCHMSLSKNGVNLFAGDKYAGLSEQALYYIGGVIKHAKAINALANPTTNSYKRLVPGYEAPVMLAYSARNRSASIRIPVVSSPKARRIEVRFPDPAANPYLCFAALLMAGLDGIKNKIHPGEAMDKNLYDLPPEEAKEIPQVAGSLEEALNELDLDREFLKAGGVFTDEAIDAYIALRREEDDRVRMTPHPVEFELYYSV
Escherichia coli deadenylylated glutamine synthetase (GS0), sequence (P0A9C5 2-469): as above

SMILES | Hill factor (h) [1] | fit to kinetic model [1, 8] | fit to kinetic model ([1]; tested model: Michaelis-Menton) | fit to kinetic model [2, 8] | fit to kinetic model ([2]; tested model: Michaelis-Menton) | fit to kinetic model [3, 8] | fit to kinetic model ([3]; tested model: Michaelis-Menton) | Hill factor (h) [4] | Hill factor (h) [6] | fit to kinetic model [6, 8] | fit to kinetic model ([6]; tested model: Michaelis-Menton) | inhibition of AK1 (AK1 [7]) | further results
Nc1ncnc2c1ncn2[C@@H]1O[C@H](COP(=O)(O)OP(=O)(O)OP(=O)(O)O)[C@@H](O)[C@H]1O [ATP, adenosine triphosphate, reference compound] | 1.77 | Allosteric sigmoidal | Fit ambiguous | Allosteric sigmoidal | Fit ambiguous | Allosteric sigmoidal | Fit ambiguous | 1.37 | 3.10 | Allosteric sigmoidal | Fit ambiguous | – | Hill factor (h) ([2]; allosteric sigmoidal model): 2.08; Hill factor (h) ([3]; allosteric sigmoidal model): 1.75; reduction in AK1 enzyme activity using ATP compared with ATP deuterated at position C8 (AK1 [5]; low ATP concentrations): 50%
Nc1ncnc2c1ncn2[C@@H]1O[C@H](COP(=O)(O)OP(=O)(O)OP(O)(O)=S)[C@@H](O)[C@H]1O [ATPS, Adenosine 5′-[γ-thio]triphosphate, reference compound] | – | – | – | – | – | – | – | – | – | – | – | inhibit | –
[2H]c1nc2c(N)ncnc2n1C1OC(COP(=O)(O)OP(=O)(O)OP(O)(O)=S)C(O)C1O (stereo not shown) [C8-D ATPS] | – | – | – | – | – | – | – | – | – | – | – | inhibit | inhibition of AK1 compared with ATPS (AK1 [7]): significantly more inhibition
Nc1ncnc2c1ncn2[C@@H]1O[C@H](COP(=O)(O)OP(=O)(O)OP(=O)(O)O)[C@@H](O)[C@H]1O [C8D-ATP] | 0.92 | Allosteric sigmoidal | Fit ambiguous | Fit ambiguous | Michaelis-Menton | Fit ambiguous | Michaelis-Menton | 1.79 | 4.08 | Allosteric sigmoidal | Fit ambiguous | – | KIEvmax ([1]; KIE at maximum enzyme activity): 2; KIED ([1]; asymptote at Vmax): 0.5; KIED ([1]; low ATP concentrations): > 5; KIEvmax ([2]; KIE at maximum enzyme activity): 1; KIED ([2]; asymptote at Vmax): 1; KIED ([2]; low ATP concentrations): > 5; KIEvmax ([3]; KIE at maximum enzyme activity): 1; KIED ([3]; asymptote at Vmax): 1; KIED ([3]; low ATP concentrations): > 5; KIEvmax ([4]; KIE at maximum enzyme activity): 2; KIED ([4]; asymptote at Vmax): 0.5; KIED ([4]; low ATP concentrations): > 5; fit to kinetic model [4, 8]: Allosteric sigmoidal; fit to kinetic model ([4]; tested model: Michaelis-Menton): Fit ambiguous; reduction in AK1 activity in the presence of deuterated ATP (AK1 [5]; high ATP concentrations): ≥ 50%; KIEvmax ([6]; KIE at maximum enzyme activity): 1; KIED ([6]; asymptote at Vmax): 1; KIED ([6]; low ATP concentrations): > 5
